Assay [1] has as its system Plasmodium falciparum. Nature of the assay: Antimalarial activity against Chloroquine sensitive Plasmodium falciparum RKL-2 assessed as parasitic growth inhibition measured after 36 to 40 hrs by Giemsa staining based assay. It is filed as functional, organism-based.
The subject of assay [2] is Plasmodium falciparum. Nature of the assay: Antimalarial activity against Chloroquine sensitive Plasmodium falciparum RKL-9 assessed as parasitic growth inhibition measured after 36 to 40 hrs by Giemsa staining based assay. It is filed as functional, organism-based.
Assay [3] deals with Plasmodium falciparum. Briefly: Antimalarial activity against Plasmodium falciparum male gametocytes assessed as parasitic growth inhibition. Type of assay: functional, organism-based.
Assay [4] relates to Plasmodium falciparum. Briefly: Antimalarial activity against Plasmodium falciparum female gametocytes assessed as parasitic growth inhibition. Type of assay: functional, organism-based.
The subject of assay [5] is Plasmodium falciparum. Nature of the assay: Antimalarial activity against Plasmodium falciparum male gametocytes assessed as parasitic growth inhibition by exflagellation assay. Type of assay: functional, organism-based.
In assay [6] the test system is Plasmodium falciparum. Nature of the assay: Antimalarial activity against mefloquine resistant Plasmodium falciparum F32 assessed as parasitic growth inhibition measured after 48 hrs. It is filed as functional, organism-based. Conditions: F32, 48 h.
Assay [7] has as its system Plasmodium falciparum. Briefly: Antimalarial activity against mefloquine resistant Plasmodium falciparum Thai assessed as parasitic growth inhibition measured after 48 hrs. Type of assay: functional, organism-based.
Assay [8] relates to Plasmodium falciparum. Nature of the assay: Antimalarial activity against mefloquine resistant Plasmodium falciparum FcB1 assessed as parasitic growth inhibition measured after 48 hrs. It is filed as functional, organism-based. Conditions: FcB1, 48 h.
Assay [9] concerns Plasmodium falciparum. Nature of the assay: Antimalarial activity against mefloquine resistant Plasmodium falciparum K1 assessed as parasitic growth inhibition measured after 48 hrs. It is filed as functional, organism-based. The following applies: K1, 48 h.
For assay [10], the system named is Plasmodium falciparum. Nature of the assay: Antimalarial activity against chloroquine resistant Plasmodium falciparum F32 assessed as parasitic growth inhibition measured after 48 hrs. It is filed as functional, organism-based. Conditions: F32, 48 h.
Assay [11] has as its system Plasmodium falciparum. Nature of the assay: Antimalarial activity against chloroquine resistant Plasmodium falciparum Thai assessed as parasitic growth inhibition measured after 48 hrs. Type of assay: functional, organism-based.
Assay [12] concerns Plasmodium falciparum. Nature of the assay: Antimalarial activity against chloroquine resistant Plasmodium falciparum FcB1 assessed as parasitic growth inhibition measured after 48 hrs. Type of assay: functional, organism-based. Conditions: FcB1, 48 h.
Assay [13] concerns Plasmodium falciparum. Briefly: Antimalarial activity against chloroquine resistant Plasmodium falciparum K1 assessed as parasitic growth inhibition measured after 48 hrs. The following applies: K1, 48 h. Type of assay: functional, organism-based.
Assay [14] relates to Plasmodium falciparum. Briefly: Antimalarial activity against Chloroquine sensitive Plasmodium falciparum D6 assessed as parasitic growth inhibition. Type of assay: functional, organism-based.
Assay [15] concerns Plasmodium falciparum. Briefly: Antimalarial activity against Chloroquine resistant Plasmodium falciparum W2 assessed as parasitic growth inhibition. Type of assay: functional, organism-based.
Assay [16] deals with Plasmodium falciparum. Nature of the assay: Potency index, ratio of chloroquine IC50 to test compound IC50 for antimalarial activity against Chloroquine resistant Plasmodium falciparum W2 assessed as parasitic growth inhibition. Type of assay: functional.
Assay [17] relates to Plasmodium falciparum. Nature of the assay: Potency index, ratio of chloroquine IC50 to test compound IC50 for antimalarial activity against Chloroquine sensitive Plasmodium falciparum D6 assessed as parasitic growth inhibition. Type of assay: functional.
Assay [18] deals with Plasmodium falciparum. Nature of the assay: Antimalarial activity against Chloroquine sensitive Plasmodium falciparum 3D7 assessed as parasitic growth inhibition measured after 24 hrs. Type of assay: functional, organism-based. Conditions: 3D7, 24 h.
Assay [19] concerns Plasmodium falciparum. Nature of the assay: Potency index, ratio of mefloquine IC50 to test compound IC50 for antimalarial activity against Plasmodium falciparum female gametocytes assessed as parasitic growth inhibition. It is filed as functional.
Assay [20] has as its system Plasmodium falciparum. Briefly: Potency index, ratio of artesunate IC50 to test compound IC50 for antimalarial activity against Plasmodium falciparum female gametocytes assessed as parasitic growth inhibition. It is filed as functional.

For `O=C1C(O)=C(NCCNc2ccnc3cc(Cl)ccc23)C(=O)c2ccccc21`, the IC50 was found to be 391 nM with Plasmodium falciparum [1] and 684 nM with Plasmodium falciparum [2].
In the case of `C[C@@H]1CC[C@H]2[C@@H](C)C(=O)O[C@@H]3O[C@@]4(C)CC[C@@H]1[C@]32OO4` [ARTEMISININ], the IC50 with Plasmodium falciparum [3] came out at 12.7 µM; in the assay with Plasmodium falciparum [4] it was 300 nM; with Plasmodium falciparum [5], 120 nM.
As to `CC1=C(CN2CCCCC2C(O)c2cc(C(F)(F)F)nc3c(C(F)(F)F)cccc23)[C@@H]2C[C@@H](C)C[C@@H]3C[C@]4(C)CC[C@@H](O1)[C@@]32OO4` (some centres undefined), the IC50 in the assay with Plasmodium falciparum [6], with Plasmodium falciparum [7], in the assay on Plasmodium falciparum [8], in the assay with Plasmodium falciparum [9], in the assay with Plasmodium falciparum [10] and in the assay with Plasmodium falciparum [11] was 2.4 nM throughout. The IC50 in the assay with Plasmodium falciparum [12] and in the assay with Plasmodium falciparum [13] was 2.4 nM throughout.
For `Cc1cc(NCCCCNc2ccnc3cc(Cl)ccc23)nc(Nc2ccc(C(=O)N3CCOCC3)cc2)n1`, the figures for the IC50 in the assay with Plasmodium falciparum [14] and with Plasmodium falciparum [15] were 32 nM and 33 nM, respectively. Moreover, the “Ratio IC50” value with Plasmodium falciparum [16] and in the assay with Plasmodium falciparum [17] was 11 throughout.
Turning to `Cc1ccc(-c2nn(-c3nc4ccccc4s3)cc2/C=N\c2cccc(Cl)c2)cc1`, the EC50 with Plasmodium falciparum [18] was determined as 1950 nM.
Turning to `C[C@H]1C[C@@H]2C[C@@H]3CC[C@H]4OC(C(F)(F)F)=C(COCCOC(=O)CCC(=O)OC(c5cc(C(F)(F)F)nc6c(C(F)(F)F)cccc56)C5CCCCN5)[C@H](C1)[C@]24OO3` (some centres undefined), the IC50 with Plasmodium falciparum [6], in the assay on Plasmodium falciparum [7], with Plasmodium falciparum [8], in the assay with Plasmodium falciparum [9], with Plasmodium falciparum [10] and in the assay with Plasmodium falciparum [11] was 2.4 nM in each case. In addition, the IC50 with Plasmodium falciparum [12] and in the assay with Plasmodium falciparum [13] was 2.4 nM in each case.
`C[C@H]1[C@@H](OC(=O)CCC(=O)O)O[C@@H]2C[C@@]3(C)CC[C@H]4[C@H](C)CC[C@@H]1[C@@]24OO3.Cc1cccc2c(C(O)C3CCCCN3)cc(C(F)(F)F)nc12` (racemic): the IC50 in the assay with Plasmodium falciparum [3] came out at 4.6 µM; with Plasmodium falciparum [4] it was 20 nM; with Plasmodium falciparum [5] it was 17 nM. The “Ratio IC50” value in the assay with Plasmodium falciparum [19] turned out to be 280; with Plasmodium falciparum [20], 15.
On to `O=C1C(O)=C(N2CCN(c3ccnc4cc(Cl)ccc34)CC2)C(=O)c2ccccc21`, for which the IC50 was determined as 391 nM in the assay with Plasmodium falciparum [1] and 1090 nM in the assay with Plasmodium falciparum [2].
As for `Cc1ccc(-c2nn(-c3nc4ccccc4s3)cc2/C=N\c2ccc(Cl)cc2)cc1`, in the assay on Plasmodium falciparum [18], the EC50 is 1980 nM.

One may read the IC50 as the midpoint of a concentration-inhibition curve. What is called EC50 is the concentration giving half of the maximal effect.

Source of the values: ChEMBL document CHEMBL5329153, “Is structural hybridization invoking new dimensions for antimalarial drug discovery research?” (RSC Med Chem, 2023).
